From publication PMC8187479, “Sugar phosphate activation of the stress sensor eIF2B” (Nature Communications, 2021)

What follows are molecules tested against T1, eIF2Bα (Homo sapiens, UniProt Q14232) (assay: MIDAS (mass spectrometry integrated with equilibrium dialysis) metabolite binding screen). Details: MIDAS metabolite binding screen with eIF2Bα; sheet "eIF2Ba".
T1 construct: made in house; host or cells: E. coli BL21(DE3)
T1 sequence (Q14232 1-305): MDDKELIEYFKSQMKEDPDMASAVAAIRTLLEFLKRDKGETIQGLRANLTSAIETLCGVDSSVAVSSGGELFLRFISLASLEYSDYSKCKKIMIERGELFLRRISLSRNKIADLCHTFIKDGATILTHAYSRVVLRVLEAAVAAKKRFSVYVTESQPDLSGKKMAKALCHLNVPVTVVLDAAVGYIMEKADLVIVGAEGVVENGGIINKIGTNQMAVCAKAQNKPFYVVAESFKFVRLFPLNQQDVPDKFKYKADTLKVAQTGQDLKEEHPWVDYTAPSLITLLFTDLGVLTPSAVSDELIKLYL
Method: Metabolites were combined into four defined screening pools. […] To the reverse side, 300 μL of 50 μM per metabolite pool was aliquoted and sealed (metabolite chamber). Loaded dialysis plates were placed in the dark at 4 °C on a rotating shaker (120 rpm) and incubated for 40 h. Post-dialysis, metabolites were isolated from each chamber by cold methanol extraction. Each sample was analyzed in technical triplicate by FIA-MS on a SCIEX X500R QTOF MS with interspersed blanks injections. The input metabolite pools were assayed at the beginning, middle, and end of each MS method batch for QC and normalization.
MIDAS FIA-MS spectra were processed in SCIEX OS 1.6 software to determine metabolite abundances by integrating the mean area under the curve for each extracted ion chromatogram. For each dialysis replicate, log2(fold change) for each metabolite was calculated as the difference between the log2 abundance in the protein chamber and metabolite chamber. For each technical triplicate, up to one outlier was removed using a z-score cutoff of five (<0.1% of observations). The corrected technical replicates were collapsed to one mean fold-change summary per protein-metabolite pair. To remove fold-change variation that was not specific to a given metabolite-protein pair, the first three principal components of the total screening dataset were removed on a per metabolite pool basis by subtracting the projection of the first 3 principal components, creating log2(corrected fold change). Protein-metabolite z-scores were determined by comparing the target protein-metabolite log2(corrected fold change) to a no-signal model for that metabolite using measures of the central tendency (median) and standard deviation (extrapolated from the 25–75% quantiles), which are robust to the signals in the tails of a metabolite’s fold-change distribution. Z-scores were false-discovery rate controlled using Storey’s q-value (qvalue, R) and protein-metabolite interactions with q-values < 0.1 were considered significant.

SMILES	log2(corrected fold change)
Nc1nc2c(ncn2[C@@H]2O[C@@H]3COP(=O)(O)O[C@H]3[C@H]2O)c(=O)[nH]1 [Cyclic GMP]	0.01224
NCCS [Cysteamine]	0.01963
Nc1ccn([C@@H]2O[C@H](COP(=O)(O)OP(=O)(O)O)[C@@H](O)[C@H]2O)c(=O)n1 [Cytidine 5-diphosphate]	0.02612
C[N+](C)(C)CCOP(=O)(O)OP(=O)([O-])OC[C@H]1O[C@@H](n2ccc(N)nc2=O)[C@H](O)[C@@H]1O [Cytidine 5-diphosphocholine]	-0.000615
Nc1ccn([C@@H]2O[C@H](COP(=O)(O)OP(=O)(O)OP(=O)(O)O)[C@@H](O)[C@H]2O)c(=O)n1 [Cytidine 5-triphosphate]	0.04784
O=C(O)[C@@H](O)[C@H](O)[C@H](O)CO [D-Arabinonic acid]	-0.01209
OC[C@@H](O)C(O)[C@H](O)CO [D-Arabitol]	0.006339
OC[C@H]1O[C@@H](O[C@H]2[C@H](O)[C@@H](O)[C@H](O)O[C@@H]2CO)[C@H](O)[C@@H](O)[C@@H]1O [D-Cellobiose]	-0.03103
O=C(O)[C@H](O)[C@@H](O)[C@H](O)[C@H](O)CO [D-Gluconic acid]	-0.01138
N[C@H]1C(O)O[C@H](COP(=O)(O)O)[C@@H](O)[C@@H]1O (stereo partly drawn) [D-Glucosamine 6-phosphate]	-0.005422
OC[C@H]1OC(O)[C@H](O)[C@@H](O)[C@@H]1O (stereo partly drawn) [D-Glucose]	-0.01874
N[C@H](CCC(=O)O)C(=O)O [D-Glutamic acid]	-0.01634
O=C[C@H](O)[C@H](O)[C@H](O)CO [D-Ribose]	-0.0769
O=C(O)[C@@H](O)[C@@H](O)[C@H](O)[C@@H](O)C(=O)O [D-Saccharic acid]	-0.01904

Further lines, results first:

log2(corrected fold change)	SMILES
-0.01884	O=C[C@H](O)[C@@H](O)[C@H](O)[C@H](O)C(=O)O [D-Glucuronic acid]
0.01187	O=C1O[C@H]2[C@H](OC(O)[C@@H]2O)[C@@H]1O (stereo partly drawn) [D-Glucurono-6,3-lactone]
-0.02892	O=C[C@H](O)CO [D-Glyceraldehyde]
-0.0058	O=C(O)CC[C@@H](O)C(=O)O [D-Hydroxyglutaric acid]
-0.01671	C[C@@H](O)C=O [D-Lactaldehyde]
-0.002139	OC[C@H]1O[C@@H](O[C@H]2[C@H](O)[C@@H](O)[C@H](O)O[C@@H]2CO)[C@H](O)[C@@H](O)[C@H]1O [D-Lactose]
-0.0302	CC(C)C[C@@H](O)C(=O)O [D-Leucic acid]
-0.003614	OC[C@H]1O[C@H](O[C@H]2[C@H](O)[C@@H](O)[C@H](O)O[C@@H]2CO)[C@H](O)[C@@H](O)[C@@H]1O [D-Maltose]
-0.01874	OC[C@H]1OC(O)[C@@H](O)[C@@H](O)[C@@H]1O (stereo partly drawn) [D-Mannose]
-0.02977	OC[C@H]1O[C@H](OC[C@H]2O[C@H](O[C@]3(CO)O[C@H](CO)[C@@H](O)[C@@H]3O)[C@H](O)[C@@H](O)[C@@H]2O)[C@H](O)[C@@H](O)[C@H]1O [D-Raffinose]
-0.01312	O=C(CO)[C@@H](O)[C@H](O)[C@H](O)[C@H](O)COP(=O)(O)O [D-Sedoheptulose 7-phosphate]
-0.04824	N[C@H](CO)C(=O)O [D-Serine]
-0.02052	OC[C@H]1O[C@H](O[C@H]2O[C@H](CO)[C@@H](O)[C@H](O)[C@H]2O)[C@H](O)[C@@H](O)[C@@H]1O [D-Trehalose]
-0.0769	O=C(CO)[C@@H](O)[C@H](O)CO [D-Xylulose]
-0.0058	O=C(O)CC[C@@H](O)C(=O)O [D-alpha-Hydroxyglutaric acid]
0.01388	O=C(O)[C@@H](O)[C@H](O)[C@H](O)[C@@H](O)C(=O)O [D-galactaric acid]
0.004891	CCCCCCCCCC(=O)O [Decanoic acid]
0.003317	O=C1OC(C(O)CO)C(=O)C1=O (centres unmarked) [Dehydroascorbic acid]

Same assay, conditions: MIDAS screen, sheet eIF2Ba; metabolites screened in pools 1-4; p-value and q-value given

SMILES	log2(corrected fold change)
Nc1ccn([C@@H]2O[C@H](CO)[C@@H](O)[C@H]2O)c(=O)n1 [Cytidine]	0.2698
O=C(O)C(O)COP(=O)(O)O [D-3-Phosphoglyceric acid]	0.07991
N[C@H](CC(=O)O)C(=O)O [D-Aspartate]	0.03257
O=C1OC[C@@H](O)[C@H]1O [D-Erythrono-1,4-lactone]	-0.2396
O=C(COP(=O)(O)O)[C@@H](O)[C@H](O)[C@H](O)COP(=O)(O)O [D-Fructose 1,6-bisphosphate]	-0.7792
O=P(O)(O)OC[C@H]1OC(O)(CO)[C@@H](O)[C@@H]1O (stereo partly drawn) [D-Fructose 6-phosphate]	-0.1344
O=C(CO)[C@@H](O)[C@H](O)[C@H](O)CO [D-Fructose]	-0.09045
O=P(O)(O)O[C@H]1O[C@H](CO)[C@H](O)[C@H](O)[C@H]1O [D-Galactose 1-phosphate]	-0.1344
O=C[C@H](O)[C@@H](O)[C@@H](O)[C@H](O)CO [D-Galactose]	-0.09045
N[C@H]1C(O)O[C@H](CO)[C@@H](O)[C@@H]1O (stereo partly drawn) [D-Glucosamine]	0.1378
O=P(O)(O)OC[C@H]1O[C@H](OP(=O)(O)O)[C@H](O)[C@@H](O)[C@@H]1O [D-Glucose 1,6-bisphosphate]	-0.7792
O=P(O)(O)O[C@H]1O[C@H](CO)[C@@H](O)[C@H](O)[C@H]1O [D-Glucose 1-phosphate]	-0.1344
O=P(O)(O)OC[C@H]1OC(O)[C@@H](O)[C@@H](O)[C@@H]1O (stereo partly drawn) [D-Mannose 6-phosphate]	-0.1344
O=C1CC[C@H](C(=O)O)N1 [D-Pyroglutamic Acid]	-0.09309
O=P(O)(O)O[C@H]1O[C@H](CO)[C@@H](O)[C@H]1O [D-Ribose 1-phosphate]	0.3189
O=C[C@H](O)[C@H](O)[C@H](O)COP(=O)(O)O [D-Ribose 5-phosphate]	0.3189

Now from value to molecule:

log2(corrected fold change)	SMILES
0.09175	O=C[C@H](O)COP(=O)(O)O [D-Glyceraldehyde 3-phosphate]
0.1183	O=P(O)(O)OC[C@H](O)CO [D-Glycerol 1-phosphate]
-0.05584	O=C(O)[C@H]1CCCN1 [D-Proline]
0.05676	OC[C@@H](O)[C@@H](O)[C@H](O)[C@@H](O)CO [D-Sorbitol]
-0.01162	O=C(CO)[C@@H](O)[C@@H](O)[C@H](O)COP(=O)(O)O [D-Tagatose 6-phosphate]
-0.1354	O=C[C@H](O)[C@@H](O)[C@H](O)CO [D-Xylose]
0.3189	O=C(CO)[C@@H](O)[C@H](O)COP(=O)(O)O [D-Xylulose 5-phosphate]
0.2026	O=P(O)(O)O[C@@H]1[C@H](O)[C@H](O)[C@@H](OP(=O)(O)O)[C@H](OP(=O)(O)O)[C@H]1O [D-myo-Inositol-1,4,5-triphosphate]
